Experimental data published in PubChem BioAssay (NCI).
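Test compounds were applied to cells in 96-well plates for 48 hours at 5 doses. Definition used: TGI = concentration required for complete inhibition of growth.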

Tested on: P388/ADR leukemia
Test: NCI tumour cell line growth inhibition, 48 h

In the case of O=S(=O)(O)O, the TGI is reported as over 3000 µM.
